From US11623909B2, “Water-based extraction and purification processes for cannabinoid acids” (MEDPHARM IOWA LLC, priority 2019, dated 2023)

Assays:
[1] = HPLC of acidified solution after precipitation of cannabinoid acid (amount remaining in solution); type: physicochemical
Text: Precipitation of crude extract (CBDA) by acidification was done with either hydrochloric acid or nitric acid. No difference was observed between the two since the precipitation was pH driven. 1.0-1.5 equivalents of acid (relative to total base) was sufficient for precipitation of the crude extract. The crude extract had CBDA purities on the order of 40-50% and were independent of the amount of acid added. E.g. adding fewer than 1.0 equivalents in an attempt to selectively precipitate either impurities or CBDA yielded crude material with similar purities. Addition of more acid yielded more precipitate of similar purity (up to 1.0-1.5 equivalents). Addition of more than 1.5 equivalents yielded no additional precipitate. Though when the mixture was allowed to sit overnight more white precipitate formed. […]
‘Spent’ CO2-stripped biomass was aliquoted out to 50 g portions (˜6 g THCA). […] All filtrate was analyzed by HPLC prior to acidification. […] Both the filtrate and dried material were analyzed by HPLC. […]
Experiment A utilized a NaOH:THCA (mol:mol) ratio of 1:1 (see Table 4). […] The amount of THCA detected in the filtrate increased with each successive wash until a rinse with no added NaOH was conducted for 1 minute. […] The precipitate was filtered off, collected, and analyzed by HPLC. The filtrate was acidified to pH 2.16 to yield a tan/brown precipitate, filter, collected and analyzed by HPLC. […]

[2] = Solubility limit of THCA anions in aqueous NaOH wash (experiment A, 1:1 NaOH:THCA); type: physicochemical; settings: NaOH:THCA 1:1 mol:mol, room temperature, conditions of experiment A
Protocol: ‘Spent’ CO2-stripped biomass was aliquoted out to 50 g portions (˜6 g THCA). Water (400 ml) and a 40 wt % solution of NaOH (see Tables 4-6) was added to the plant material. The mixture was allowed to stir for 10 minutes at 500-1000 RPM (speed was adjusted to minimize foaming). Solid materials were filtered off with coffee filters. The process was repeated for a total of 4 (Expt A) to 5 (Expts B&C) iterations. A final rinse 2×200 ml with no NaOH was stirred for 1 minute then filtered off. All filtrate was analyzed by HPLC prior to acidification. Acidification to pH 2-3 with HCl, as described above, yielded a precipitate which was filtered off and dried. Both the filtrate and dried material were analyzed by HPLC. All extractions were done at room temperature.
Experiment A utilized a NaOH:THCA (mol:mol) ratio of 1:1 (see Table 4). […] The amount of THCA detected in the filtrate increased with each successive wash until a rinse with no added NaOH was conducted for 1 minute. […] The precipitate was filtered off, collected, and analyzed by HPLC. The filtrate was acidified to pH 2.16 to yield a tan/brown precipitate, filter, collected and analyzed by HPLC. […] The final filtrate (left over after harvesting THCA) contained THCA quantities that were below the limit of quantification (less than 10 mg/400 g wash/rinse; that is <0.001 wt % THCA).

SMILES	CBDA remaining in acidified solution (loss) ([1]; acidified solution pH~4, after precipitation of crude extract) [μg CBDA/ml]	THCA in final filtrate after acidification (below limit of quantification) ([1]; filtrate after acidification to pH 2-3 with HCl and harvesting THCA, experiment A) [wt % THCA]	solubility limit for THCA anions [2]
C=C(C)[C@@H]1CCC(C)=C[C@H]1c1c(O)cc(CCCCC)c(C(=O)O)c1O [CBDA]	~7	–	–
CCCCCc1cc2c(c(O)c1C(=O)O)[C@@H]1C=C(C)CC[C@H]1C(C)(C)O2 [THCA]	–	< 0.001	around 0.3 wt %
